{
  "source": "patent US8685369B2",
  "about": "“Technetium- and rhenium-bis (heteroaryl) complexes, and methods of use thereof” (priority 2004, dated 2014)",
  "type": "physicochemical",
  "method": "The stability and robustness of the technetium-di(pyridine) complexes was assessed using challenges with free cysteine and histidine. Specifically, the experiments were performed using [^99mTc(CO)3(dipyridinemethylamine)]^+1.\n[^99mTc(CO)3(H2O)3]^+ was heated with [{N,N-di(pyridyl-2-methyl)}N-butyl-phthalimide in 0.5 mL (1 mg/mL) of methanol at 100° C. for 60 minutes. […] The product eluted with methanol at 20.8 minutes. The HPLC analysis was performed using a Supelco C18 column, 25 cm×4.6 mm column (5 μm pore size), equipped with 2 cm guard using solvent A=0.05 M triethylammonium phosphate buffer pH 2.5 and solvent B=methanol. The method employed was a gradient 5-95% B, 1 mL/minute for 30 minutes. The gradient ramped from 5-95 from 3-20 minutes.",
  "data": [
    {"substance": "[^99mTc(CO)3(dipyridinemethylamine)]^+1", "values": [
      {"measurement": "stability in challenges with free cysteine and histidine", "value": "stable"},
      {"measurement": "change in the components by HPLC on incubation with cysteine", "setting": "aqueous solution, cysteine, 18 hours at 37° C. at pH 7.4", "value": "no significant change"}
    ]}
  ]
}
